Laboratory results published in the supplement of paper PMC10307832.

What was measured:
Test in all cases: relative viability (nuclei count vs DMSO), 5 days (fraction); higher = more cells survive
[1] = compound: O=C(/C=C/c1ccccc1)NC(NC(=S)Nc1cccc2cccnc12)C(Cl)(Cl)Cl [Salubrinal] + N=C(N)NC(=N)NCCc1ccccc1 [Phenformin] (partner 250 µM)
Procedure, shortened: (§1)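 Nuclei were stained with Hoechst during a one-step fixation (final 0.05% Triton X-100, 1% formaldehyde, 1 ug/ml Hoechst) carried out 5 days after dosing, then counted on 4× images. The cells, lung cancer lines in 1536-well plates, had been dosed by pin tool the day after seeding with one drug alone or a fixed anchor-drug dose plus five library-drug doses (not always all listed) in √10 steps. Relative viability is the nuclei count in treated wells divided by that in vehicle wells, and each value is the median of duplicate plates.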

[2] = compound: O=C(/C=C/c1ccccc1)NC(NC(=S)Nc1cccc2cccnc12)C(Cl)(Cl)Cl [Salubrinal] + CCNC(=O)c1noc(-c2cc(C(C)C)c(O)cc2O)c1-c1ccc(CN2CCOCC2)cc1 [Luminespib] (partner 0.01 µM)
Procedure, shortened: as §1

[3] = compound: O=C(/C=C/c1ccccc1)NC(NC(=S)Nc1cccc2cccnc12)C(Cl)(Cl)Cl [Salubrinal] + CC(=O)c1c(C)c2cnc(Nc3ccc(N4CCNCC4)cn3)nc2n(C2CCCC2)c1=O [Palbociclib] (partner 0.5 µM)
Procedure, shortened: as §1

[4] = compound: Cc1ccc2nc(NCCN)c3ncc(C)n3c2c1 + CS(=O)(=O)CCNCc1ccc(-c2ccc3ncnc(Nc4ccc(OCc5cccc(F)c5)c(Cl)c4)c3c2)o1 [Lapatinib] (partner 2 µM)
Procedure, shortened: as §1

Cell Line | relative viability ([1]; first compound 0.08 µM) | relative viability ([1]; first compound 0.253 µM) | relative viability ([1]; first compound 0.8 µM) | relative viability ([1]; first compound 2.53 µM) | relative viability ([1]; first compound 8 µM) | relative viability ([2]; first compound 0.08 µM) | relative viability ([2]; first compound 0.253 µM) | relative viability ([2]; first compound 0.8 µM) | relative viability ([2]; first compound 2.53 µM) | relative viability ([2]; first compound 8 µM) | relative viability ([3]; first compound 0.08 µM) | relative viability ([3]; first compound 0.253 µM) | relative viability ([3]; first compound 0.8 µM) | relative viability ([3]; first compound 2.53 µM) | relative viability ([3]; first compound 8 µM) | relative viability ([4]; first compound 0.04 µM) | relative viability ([4]; first compound 0.1265 µM) | relative viability ([4]; first compound 0.4 µM) | relative viability ([4]; first compound 1.265 µM) | relative viability ([4]; first compound 4 µM)
NCI-H322M | 0.783 | 0.725 | 0.929 | 0.769 | 0.678 | 1.06 | 0.794 | 0.866 | 0.761 | 0.712 | 0.528 | 0.445 | 0.547 | 0.483 | 0.518 | 0.535 | 0.593 | 0.586 | 0.59 | 0.603
NCI-H358 | 0.365 | 0.27 | 0.36 | 0.319 | 0.278 | 0.277 |  | 0.553 | 0.478 | 0.38 | 0.154 | 0.137 | 0.123 | 0.109 | 0.138 | 0.549 | 0.486 | 0.434 | 0.508 | 0.511
NCI-H460 | 0.706 | 0.32 | 0.629 | 0.515 | 0.49 | 0.0402 | 0.0238 | 0.031 | 0.0302 | 0.0364 | 0.202 | 0.158 | 0.184 | 0.145 | 0.105 | 0.999 | 1 | 0.886 | 0.898 | 0.745
NCI-H520 | 0.56 | 0.556 | 0.831 | 0.646 | 0.54 | 0.255 | 0.218 | 0.279 | 0.217 | 0.203 | 0.25 | 0.225 | 0.23 | 0.21 | 0.271 | 0.964 | 0.853 | 0.866 | 0.837 | 0.729
NCI-H647 | 0.607 | 0.293 | 0.885 | 0.595 | 0.452 | 0.208 | 0.243 | 0.27 | 0.356 | 0.154 | 0.56 | 0.37 | 0.39 | 0.431 | 0.347 | 1.08 | 1.02 | 0.948 | 1.13 | 0.707
NCI-H650 | 0.456 | 0.514 | 0.509 | 0.499 | 0.417 | 0.753 | 0.791 | 0.845 | 0.786 | 0.767 | 0.346 | 0.3 | 0.355 | 0.332 | 0.298 | 0.927 | 0.123 | 0.645 | 0.969 | 0.761
NCI-H661 | 0.278 | 0.283 | 0.28 | 0.288 | 0.275 | 0.912 | 0.763 | 0.919 | 0.905 | 0.941 | 0.424 | 0.436 | 0.412 | 0.412 | 0.398 | 0.587 | 0.407 | 0.43 |  | 0.458
NCI-H727 | 0.41 | 0.461 | 0.491 | 0.504 | 0.688 | 0.407 | 0.337 | 0.337 | 0.312 | 0.274 | 0.672 | 0.585 | 0.656 | 0.605 | 0.691 | 1.22 | 0.887 | 1.19 | 0.766 | 0.762
NCI-H838 | 0.657 | 0.379 | 0.695 | 0.602 | 0.622 | 0.264 | 0.258 | 0.285 | 0.341 | 0.272 | 0.225 | 0.244 | 0.218 | 0.247 | 0.214 | 1.08 | 1.01 | 0.919 | 0.974 | 0.837
NCI-H1355 | 0.424 | 0.426 | 0.475 | 0.456 | 0.44 | 0.801 | 0.744 | 0.555 | 0.72 | 0.705 | 0.423 | 0.472 | 0.412 | 0.402 | 0.364 | 1.02 | 0.981 | 0.962 | 0.952 | 0.988
NCI-H1395 | 0.473 | 0.459 | 0.451 | 0.453 | 0.431 | 0.761 | 0.701 | 0.774 | 0.729 | 0.644 | 0.638 | 0.648 | 0.591 | 0.62 | 0.587 | 0.936 | 0.917 | 0.958 | 0.994 | 0.803
NCI-H1437 | 0.314 | 0.251 | 0.343 | 0.283 | 0.306 | 1.21 | 0.999 | 1.19 | 1.08 | 1.12 | 0.321 | 0.334 | 0.327 | 0.315 | 0.322 | 0.817 | 0.794 | 0.777 | 0.819 | 0.733
NCI-H1650 | 0.497 | 0.462 | 0.423 | 0.423 | 0.422 | 0.212 | 0.213 | 0.194 | 0.19 | 0.216 | 0.314 | 0.297 | 0.334 | 0.366 | 0.375 | 0.887 | 0.764 | 0.434 | 0.836 | 0.65
NCI-H1651 | 0.311 | 0.237 | 0.345 | 0.296 | 0.267 | 0.99 | 0.897 | 0.962 | 0.743 | 0.827 | 0.561 | 0.479 | 0.564 | 0.513 | 0.508 | 0.853 | 0.879 | 0.841 | 0.894 | 0.737
NCI-H1666 | 0.535 | 0.603 | 0.561 | 0.547 | 0.514 | 0.984 | 0.903 | 0.95 | 0.945 | 1.1 | 0.687 | 0.593 | 0.632 | 0.641 | 0.603 | 0.788 | 0.64 | 0.505 | 0.478 | 0.568
